This is an account of results in US20240217983A1, “GPR119 AGONISTS” (Kallyope, Inc., priority 2021, published 2024).

This test has as its target T1, human GPR119 (hGPR119) (Homo sapiens, UniProt Q8TDV5).
T1 construct: expressed in transfected cells
T1 sequence (Q8TDV5 1-335): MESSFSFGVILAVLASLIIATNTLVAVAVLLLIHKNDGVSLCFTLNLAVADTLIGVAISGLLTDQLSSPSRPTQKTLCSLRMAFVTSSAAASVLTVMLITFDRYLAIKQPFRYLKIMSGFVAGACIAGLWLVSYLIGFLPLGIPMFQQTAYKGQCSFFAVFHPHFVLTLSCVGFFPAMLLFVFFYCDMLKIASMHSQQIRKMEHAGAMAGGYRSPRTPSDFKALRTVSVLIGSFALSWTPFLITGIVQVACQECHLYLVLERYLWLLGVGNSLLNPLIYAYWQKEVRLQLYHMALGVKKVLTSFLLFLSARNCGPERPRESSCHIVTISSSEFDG
Nature of the test: cAMP accumulation assay (Cisbio cAMP Gs dynamic HTRF kit) in CHO-K1 cells stably expressing human GPR119. The class given is cell-based. To be noted: 4-parameter fit; for Emax: 1 h, % activity normalized to Max and Min controls; for EC50: 60 minutes at 37° C. Summed up: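 CHO-K1 cells stably expressing hGPR119, used as assay-ready frozen stocks at ~10,000 cells/well, exposed to compound dose-response in stimulation buffer with Tween 80 for 60 min at 37° C. cAMP read by HTRF (665/620 nm ratio), normalised to Max/Min controls; EC50 and Max activity from 4-parameter fit.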
On the technique in general: Cyclic AMP is a second messenger, typically raised through Gs and lowered through Gi signalling.

As a reminder, the Emax is the size of the effect at its maximum, as opposed to the concentration needed. One may read the EC50 as the concentration needed to bring the measured effect to its halfway point. In turn, `O=C(Cc1ccc(OCCCC2CCN(c3ncc(Cl)cn3)CC2)cc1F)N1CC2CCC1CN2C[C@H](O)[C@H](O)[C@H](O)CO` (stereo partly drawn) [Example 52, 2-(4-(3-(1-(5-chloropyrimidin-2-yl)piperidin-4-yl)propoxy)-2-fluorophenyl)-1-(5-((2S,3S,4R)-2,3,4,5-tetrahydroxypentyl)-2,5-diazabicyclo[2.2.2]octan-2-yl)ethan-1-one] registered a maximum response (Emax) of at least 130% and an EC50 of at most 0.1 µM.
For `O=C(Cc1ccc(OCCCC2CCN(c3ncc(Cl)cn3)CC2)cc1F)N1CC2CCC1CN2C[C@H](O)[C@@H](O)[C@H](O)[C@H](O)CO` (stereo partly drawn) [Example 53, 2-(4-(3-(1-(5-chloropyrimidin-2-yl)piperidin-4-yl)propoxy)-2-fluorophenyl)-1-(5-((2S,3R,4R,5R)-2,3,4,5,6-pentahydroxyhexyl)-2,5-diazabicyclo[2.2.2]octan-2-yl)ethan-1-one], in that order: 100 to 130% and at most 0.1 µM.
The matching figures for `O=C(Cc1ccc(OCCCC2CCN(c3ncc(Cl)cn3)CC2)cc1F)N1C[C@@H]2C[C@H]1CN2C[C@H](O)[C@H](O)[C@H](O)CO` [Example 54, 2-(4-(3-(1-(5-chloropyrimidin-2-yl)piperidin-4-yl)propoxy)-2-fluorophenyl)-1-((1S,4S)-5-((2S,3S,4R)-2,3,4,5-tetrahydroxypentyl)-2,5-diazabicyclo[2.2.1]heptan-2-yl)ethan-1-one]: 100 to 130% and at most 0.1 µM.
The matching figures for `O=C(Cc1ccc(OCCCC2CCN(c3ncc(Cl)cn3)CC2)cc1F)N1C[C@@H]2C[C@H]1CN2C[C@H](O)[C@@H](O)[C@H](O)[C@H](O)CO` [Example 55, 2-(4-(3-(1-(5-chloropyrimidin-2-yl)piperidin-4-yl)propoxy)-2-fluorophenyl)-1-((1S,4S)-5-((2S,3R,4R,5R)-2,3,4,5,6-pentahydroxyhexyl)-2,5-diazabicyclo[2.2.1]heptan-2-yl)ethan-1-one]: 100 to 130% and at most 0.1 µM.
`O=C(Cc1ccc(OCCCC2CCN(c3ncc(Cl)cn3)CC2)cc1F)N1C2CC1CN(C[C@H](O)[C@H](O)[C@H](O)CO)C2` [Example 56, 2-(4-(3-(1-(5-chloropyrimidin-2-yl)piperidin-4-yl)propoxy)-2-fluorophenyl)-1-(3-((2S,3S,4R)-2,3,4,5-tetrahydroxypentyl)-3,6-diazabicyclo[3.1.1]heptan-6-yl)ethan-1-one] gave an Emax of 100 to 130% and an EC50 of at most 0.1 µM.
Turning to `O=C(Cc1ccc(OCCCC2CCN(c3ncc(Cl)cn3)CC2)cc1F)N1C2CC1CN(C[C@H](O)[C@@H](O)[C@H](O)[C@H](O)CO)C2` [Example 57, 2-(4-(3-(1-(5-chloropyrimidin-2-yl)piperidin-4-yl)propoxy)-2-fluorophenyl)-1-(3-((2S,3R,4R,5R)-2,3,4,5,6-pentahydroxyhexyl)-3,6-diazabicyclo[3.1.1]heptan-6-yl)ethan-1-one], the Emax fell in the range of 100 to 130% and the EC50 was at most 0.1 µM.
The matching figures for `O=C(Cc1ccc(OCCCC2CCN(c3ncc(Cl)cn3)CC2)cc1F)N1CCN(C[C@H](O)[C@H](O)[C@H](O)CO)C2CC21` (stereo partly drawn) [Example 58, 2-(4-(3-(1-(5-chloropyrimidin-2-yl)piperidin-4-yl)propoxy)-2-fluorophenyl)-1-(5-((2S,3S,4R)-2,3,4,5-tetrahydroxypentyl)-2,5-diazabicyclo[4.1.0]heptan-2-yl)ethan-1-one]: 100 to 130% and at most 0.1 µM.
`O=C(Cc1ccc(OCCCC2CCN(c3ncc(Cl)cn3)CC2)cc1F)N1CCN(C[C@H](O)[C@@H](O)[C@H](O)[C@H](O)CO)C2CC21` (stereo partly drawn) [Example 59, 2-(4-(3-(1-(5-chloropyrimidin-2-yl)piperidin-4-yl)propoxy)-2-fluorophenyl)-1-(5-((2S,3R,4R,5R)-2,3,4,5,6-pentahydroxyhexyl)-2,5-diazabicyclo[4.1.0]heptan-2-yl)ethan-1-one] registered an Emax of 100 to 130% and an EC50 of at most 0.1 µM.
For `O=C(Cc1ccc(OCCCC2CCN(c3ncc(Cl)cn3)CC2)cc1F)N1CC2(CCCN2C[C@H](O)[C@H](O)[C@H](O)CO)C1` [Example 60, 2-(4-(3-(1-(5-chloropyrimidin-2-yl)piperidin-4-yl)propoxy)-2-fluorophenyl)-1-(5-((2S,3S,4R)-2,3,4,5-tetrahydroxypentyl)-2,5-diazaspiro[3.4]octan-2-yl)ethan-1-one], the Emax was at least 130% and the EC50 is at most 0.1 µM.
The matching figures for `O=C(Cc1ccc(OCCCC2CCN(c3ncc(Cl)cn3)CC2)cc1F)N1CC2(CCCN2C[C@H](O)[C@@H](O)[C@H](O)[C@H](O)CO)C1` [Example 61, 2-(4-(3-(1-(5-chloropyrimidin-2-yl)piperidin-4-yl)propoxy)-2-fluorophenyl)-1-(5-((2S,3R,4R,5R)-2,3,4,5,6-pentahydroxyhexyl)-2,5-diazaspiro[3.4]octan-2-yl)ethan-1-one]: at least 130% and at most 0.1 µM.
As for `O=C(Cc1ccc(OCCCC2CCN(c3ncc(Cl)cn3)CC2)cc1F)N1CC2(C1)N(C[C@H](O)[C@H](O)[C@H](O)CO)CC2(F)F` [Example 62, 2-(4-(3-(1-(5-chloropyrimidin-2-yl)piperidin-4-yl)propoxy)-2-fluorophenyl)-1-(3,3-difluoro-1-((2S,3S,4R)-2,3,4,5-tetrahydroxypentyl)-1,6-diazaspiro[3.3]heptan-6-yl)ethan-1-one], the Emax was in the range of 100 to 130% and the EC50 was at most 0.1 µM.
In turn, `O=C(Cc1ccc(OCCCC2CCN(c3ncc(Cl)cn3)CC2)cc1F)N1CC2(C1)N(C[C@H](O)[C@@H](O)[C@H](O)[C@H](O)CO)CC2(F)F` [Example 63, 2-(4-(3-(1-(5-chloropyrimidin-2-yl)piperidin-4-yl)propoxy)-2-fluorophenyl)-1-(3,3-difluoro-1-((2S,3R,4R,5R)-2,3,4,5,6-pentahydroxyhexyl)-1,6-diazaspiro[3.3]heptan-6-yl)ethan-1-one] registered a maximal response (Emax) of at least 130% and an EC50 of at most 0.1 µM.
The matching figures for `O=C(Cc1ccc(OCCCC2CCN(c3ncc(Cl)cn3)CC2)cc1F)N1C[C@H]2CCN(C[C@H](O)[C@H](O)[C@H](O)CO)[C@H]2C1` [Example 64, 2-(4-(3-(1-(5-chloropyrimidin-2-yl)piperidin-4-yl)propoxy)-2-fluorophenyl)-1-((3aR,6aR)-1-((2S,3S,4R)-2,3,4,5-tetrahydroxypentyl)hexahydropyrrolo[3,4-b]pyrrol-5(1H)-yl)ethan-1-one]: 100 to 130% and at most 0.1 µM.
`O=C(Cc1ccc(OCCCC2CCN(c3ncc(Cl)cn3)CC2)cc1F)N1C[C@H]2CCN(C[C@H](O)[C@@H](O)[C@H](O)[C@H](O)CO)[C@H]2C1` [Example 65, 2-(4-(3-(1-(5-chloropyrimidin-2-yl)piperidin-4-yl)propoxy)-2-fluorophenyl)-1-((3aR,6aR)-1-((2S,3R,4R,5R)-2,3,4,5,6-pentahydroxyhexyl)hexahydropyrrolo[3,4-b]pyrrol-5(1H)-yl)ethan-1-one] showed an Emax of 100 to 130% and an EC50 of at most 0.1 µM.
For `O=C(Cc1ccc(OCCCC2CCN(c3ncc(Cl)cn3)CC2)cc1F)N1CC2(CCN(C[C@H](O)[C@H](O)[C@H](O)CO)C2)C1` [Example 66, 2-(4-(3-(1-(5-chloropyrimidin-2-yl)piperidin-4-yl)propoxy)-2-fluorophenyl)-1-(6-((2S,3S,4R)-2,3,4,5-tetrahydroxypentyl)-2,6-diazaspiro[3.4]octan-2-yl)ethan-1-one], in that order: 100 to 130% and at most 0.1 µM.
